Data: ChEMBL document CHEMBL2203235, “Optimization of a natural product-based class of γ-secretase modulators” (J Med Chem, 2012)

Key:
Liver microsomes = test: Metabolic stability in human liver microsomes at 1 uM after 60 mins by LC/MS/MS analysis; details: 1 h
[1] = Modulation of gamma secretase in CHO-2B7 cells assessed as reduction in amyloid beta 42 level after 5 hrs by MSD ELISA; assay type: cell-based; details: Cricetulus griseus, CHO-2B7, 5 h
[2] = Modulation of gamma secretase in CHO-2B7 cells assessed as reduction in amyloid beta 40 level after 5 hrs by MSD ELISA; assay type: cell-based; details: Cricetulus griseus, CHO-2B7, 5 h

| SMILES | Stability (Liver microsomes) | IC50 [1] | IC50 [2] |
| --- | --- | --- | --- |
| CC(C)[C@@H](OC(=O)N1CCC1)[C@H]1C[C@@H](C)[C@H]2[C@H](O1)[C@H](O)[C@@]1(C)[C@@H]3CC[C@H]4C(C)(C)[C@@H](OC(=O)N5CC(O)C5)CC[C@@]45C[C@@]35CC[C@]21C | Stable | 350 nM | 8000 nM |
| CCO[C@@H]([C@H]1C[C@@H](C)[C@H]2[C@H](O1)[C@H](O)[C@@]1(C)[C@@H]3CC[C@H]4C(C)(C)[C@@H](O[C@H]5CN(CC)CCO5)CC[C@@]45C[C@@]35CC[C@]21C)C(C)(C)O | Stable | 210 nM | 2700 nM |
| CNC(=O)O[C@H]1CC[C@]23C[C@]24CC[C@]2(C)[C@@H]5[C@H](O[C@@H]([C@H](OC(=O)N6CCC6)C(C)C)C[C@H]5C)[C@H](O)[C@@]2(C)[C@@H]4CC[C@H]3C1(C)C | Stable | 760 nM | 8700 nM |
| CCO[C@@H]([C@H]1C[C@@H](C)[C@H]2[C@H](O1)[C@H](O)[C@@]1(C)[C@@H]3CC[C@H]4C(C)(C)[C@@H](OC(=O)N5CC[C@H](C(=O)O)C5)CC[C@@]45C[C@@]35CC[C@]21C)C(C)(C)O | Stable | 400 nM | 17000 nM |
| CCO[C@@H]([C@H]1C[C@@H](C)[C@H]2[C@H](O1)[C@H](O)[C@@]1(C)[C@@H]3CC[C@H]4C(C)(C)[C@@H](OC(=O)N[C@@H]5CCNC5=O)CC[C@@]45C[C@@]35CC[C@]21C)C(C)(C)O | Stable | 140 nM | 2500 nM |
| CC(C)[C@@H](OC(=O)N1CCC1)[C@H]1C[C@@H](C)[C@H]2[C@H](O1)[C@H](O)[C@@]1(C)[C@@H]3CC[C@H]4C(C)(C)[C@@H](O[C@H]5CN([C@@H]6CCNC6=O)CCO5)CC[C@@]45C[C@@]35CC[C@]21C | Stable | 490 nM | 15000 nM |
| CCO[C@@H]([C@H]1C[C@@H](C)[C@H]2[C@H](O1)[C@H](O)[C@@]1(C)[C@@H]3CC[C@H]4C(C)(C)[C@@H](O[C@H]5CN(CC(=O)N6CCOCC6)CCO5)CC[C@@]45C[C@@]35CC[C@]21C)C(C)(C)O | Stable | 230 nM | 14000 nM |
| CC(C)[C@@H](OC(=O)N1CCC1)[C@H]1C[C@@H](C)[C@H]2[C@H](O1)[C@H](O)[C@@]1(C)[C@@H]3CC[C@H]4C(C)(C)[C@@H](O[C@H]5CN(C6COC6)CCO5)CC[C@@]45C[C@@]35CC[C@]21C | Stable | 560 nM | 11000 nM |
| CCO[C@@H]([C@H]1C[C@@H](C)[C@H]2[C@H](O1)[C@H](O)[C@@]1(C)[C@@H]3CC[C@H]4C(C)(C)[C@@H](OC(=O)NC5COC5)CC[C@@]45C[C@@]35CC[C@]21C)C(C)(C)O | Stable | 140 nM | 5000 nM |
| CC(C)[C@@H](OC(=O)N1CCC1)[C@H]1C[C@@H](C)[C@H]2[C@H](O1)[C@H](O)[C@@]1(C)[C@@H]3CC[C@H]4C(C)(C)[C@@H](O[C@H]5CN(C(=O)CCC(=O)O)CCO5)CC[C@@]45C[C@@]35CC[C@]21C | Stable | 280 nM | 7200 nM |
| CCO[C@@H]([C@H]1C[C@@H](C)[C@H]2[C@H](O1)[C@H](O)[C@@]1(C)[C@@H]3CC[C@H]4C(C)(C)[C@@H](O[C@H]5CN(CCCC(=O)O)CCO5)CC[C@@]45C[C@@]35CC[C@]21C)C(C)(C)O | Stable | 630 nM | 6500 nM |
| CCO[C@@H]([C@H]1C[C@@H](C)[C@H]2[C@H](O1)[C@H](O)[C@@]1(C)[C@@H]3CC[C@H]4C(C)(C)[C@@H](O[C@H]5CN(CCN(C)C)CCO5)CC[C@@]45C[C@@]35CC[C@]21C)C(C)(C)O | Stable | 130 nM | 3200 nM |
